Common to all, as to experiment: NCI anticancer screen, dose series, 48 h
The test system of experiment [1] is MDA-MB-435.
Experiment [2] has as its system MDA-MB-231 breast.
The test system of experiment [3] is KM20L2 colon.
Experiment [4] relates to HOP-18 NSCLC.
In experiment [5] the test system is MDA-N.
Experiment [6] concerns XF 498 CNS.

SMILES strings stand for the structures. Several values for one entry are separate records, joined by “and”; a condition that tells them apart may be missing. Equal values may be shown once.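 96-well plates; 48 h exposure; 5 concentrations. Endpoints by linear interpolation between flanking doses. Not reached: highest tested concentration assigned. GI50: concentration for 50% inhibition of growth. TGI is the concentration that stops growth completely.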 Where a SMILES comes first, the peptide text is derived from it. [ ]: non-standard residue; d: D form. The star is where a group is joined. Bn2Val = CC(C)[C@@H](C(=O)*)N(Cc1ccccc1)Cc1ccccc1; NH(3,4-diMeO-benzyl) = COc1ccc(CN*)cc1OC; NMeV = CN[C@H](C(=O)O)C(C)C; dNMeA = CN[C@H](C)C(=O)O

Take `CN1CCN(Cc2ccc(NC(=O)c3cncc(C#Cc4cnc(N)c5ccccc45)c3)cc2C(F)(F)F)CC1`: the GI50 was 0.348 µM in experiment [1] and 0.369 µM in experiment [2]. Besides, the TGI in experiment [1] is 0.783 µM; in experiment [2], 0.82 µM.

As to `O=S(=O)(O)C(O)/C=C/c1ccccc1` (stereo unspecified), the TGI in experiment [3] and in experiment [4] was > 100 µM in each case.

`NS(=O)(=O)c1ccc(-n2nc(-c3ccc(Br)cc3)ccc2=O)cc1`: in experiment [1], the GI50 is 3.72 µM and the TGI is > 10 µM. Further, in experiment [2], the GI50 is > 10 µM and the TGI is > 10 µM.

Consider `COc1ccc(CNC(=O)[C@@H](C)N(C)C(=O)[C@@H]2CCCN2C(=O)[C@H](C(C)C)N(C)C(=O)[C@@H](NC(=O)[C@H](C(C)C)N(Cc2ccccc2)Cc2ccccc2)C(C)C)cc1OC` (Bn2Val-V[NMeV]P[dNMeA]-{NH(3,4-diMeO-benzyl)}), for which the GI50 was 11.7 µM in experiment [5], 11.1 µM in experiment [1] and 10.8 µM in experiment [2]. Moreover, the TGI in experiment [5] is 20.2 µM and 24.9 µM; in experiment [1] it was 19.7 µM and 24.1 µM; in experiment [2], 18.8 µM and 22.7 µM.

Take `S=C1NCCN1C1=Nc2ccccc2CO1`: in experiment [1], the GI50 was > 100 µM and the TGI was > 100 µM. In experiment [2], the GI50 is > 100 µM and the TGI was > 100 µM.

On to `O=[n+]1c(CBr)c(CBr)n([O-])c2ccccc21`, for which the GI50 in experiment [1] is 12 µM; in experiment [2], 11.9 µM. Further, the TGI amounted to 25 µM in experiment [1] and 24.5 µM in experiment [2].

`Fc1ccc(-c2nn(-c3ccccc3)cc2-c2nc3ccccc3o2)cc1`: in experiment [1], the GI50 is 1.79 µM and the TGI was 3.41 µM. In addition, in experiment [2], the GI50 was 8.47 µM and the TGI worked out at 67.3 µM.

Turning to `O=C(/C=C(\[O-])c1ccccc1)CCCCCCC(=O)/C=C(\[O-])c1ccccc1.O=C(/C=C(\[O-])c1ccccc1)CCCCCCC(=O)/C=C(\[O-])c1ccccc1.O=C(/C=C(\[O-])c1ccccc1)CCCCCCC(=O)/C=C(\[O-])c1ccccc1.[La+3].[La+3]`, in experiment [3], the GI50 is > 50 µM and the TGI is > 50 µM.

On to `O=c1c(Cl)c(Cl)cnn1-c1ccccc1`, for which the TGI in experiment [6] is 5.47 µM; in experiment [3], 24.5 µM and 15.7 µM; in experiment [4], 22.8 µM and 21.9 µM; in experiment [5], 6.77 µM and 3.65 µM; in experiment [1], 3.58 µM and 3.73 µM; in experiment [2], 3.34 µM. For the same compound, the GI50 in experiment [3] is 0.655 µM and 6.44 µM.

As to `COc1ccc(-n2cc(-c3ccc(OC)c(OC)c3)[nH]c2=S)cc1Cl`, the GI50 was > 100 µM in experiment [1] and 61.4 µM in experiment [2]. Moreover, the TGI in experiment [1] and in experiment [2] was > 100 µM in each case.

As for `COc1cccc(-c2nn(-c3ccccc3)cc2-c2ccnc(NCCCNS(=O)(=O)c3cccc(F)c3)c2)c1`, in experiment [1], the GI50 is 3.68 µM and the TGI stood at 58.8 µM. Further, in experiment [2], the GI50 is 3.43 µM and the TGI is > 100 µM.

With `O=C1Oc2cc3c(c4cccc1c24)OCN(c1ccc(Cl)cc1)C3`, the results for the TGI in experiment [6], in experiment [3] and in experiment [4] were 45.6 µM, > 100 µM and 91.5 µM, respectively.

With `CN(C)CCNc1nc2ccccc2c2[nH]c3ccccc3c12`, in experiment [1], the GI50 is 0.42 µM and the TGI came to 1.71 µM. Moreover, in experiment [2], the GI50 is 1.22 µM and the TGI amounted to 3.99 µM.

Turning to `OCCNCO`, the TGI in experiment [6] and in experiment [3] was > 100 µM in each case.

As for `O=C(N/N=C/c1cccc(O)c1O)N/N=C/c1cccc(O)c1O`, the TGI in experiment [6] was > 100 µM; in experiment [3], 95.2 µM; in experiment [4] it was 67.1 µM.

In the case of `CC(=O)c1ccc(N(/C=C/C(=O)C(F)(F)F)CC(=O)c2ccc(Cl)c(Cl)c2)cc1`, the figures for the GI50 in experiment [1] and in experiment [2] were 3.43 µM and 11.6 µM, respectively. In addition, the TGI amounted to 11.7 µM in experiment [1] and 25 µM in experiment [2].

As to `Clc1cccc(NC=Nc2ccc(-c3nc4ccccc4s3)cc2)c1`, the GI50 is 14.3 µM in experiment [1] and 9.72 µM in experiment [2]. Also, the TGI in experiment [1] was 32.7 µM; in experiment [2], 23.6 µM.

`CN(C)S(=O)(=O)Nc1ccccn1`: the TGI in experiment [5], in experiment [1] and in experiment [2] was > 100 µM each time.

As for `O=C1c2ccccc2C(=O)c2c1ccc1[nH]c(CCl)nc21`, in experiment [1], the GI50 was 3.37 µM and the TGI was found to be 11.8 µM. Also, in experiment [2], the GI50 is 3.74 µM and the TGI was determined as 15.3 µM.

On to `O=C1CSC(N2CCN(c3cccc(Cl)c3)CC2)=N1`, for which, in experiment [1], the GI50 is > 100 µM and the TGI is > 100 µM. For the same compound, in experiment [2], the GI50 was > 100 µM and the TGI was > 100 µM.

On to `CCN1CCN(c2nc(NCCNc3ccnc4cc(Cl)ccc34)c3ccccc3n2)CC1`, for which, in experiment [1], the GI50 was 1.64 µM and the TGI is 3.14 µM. Besides, in experiment [2], the GI50 was 1.28 µM and the TGI worked out at 2.88 µM.

On to `COc1ccccc1NC(=O)c1ccc(/C=C/C(=O)c2nccn2C)cc1`, for which, in experiment [1], the GI50 is 0.548 µM and the TGI was 1.3 µM. In experiment [2], the GI50 was 0.835 µM and the TGI stood at 9.25 µM.

For `Cn1cc(C2=C(c3ccc(OC[C@@H](O)CO)cc3)C(=O)NC2=O)c2ccccc21`, in experiment [1], the GI50 was > 25 µM and the TGI was > 25 µM. Besides, in experiment [2], the GI50 was > 25 µM and the TGI is > 25 µM.

For the compound `O=C1c2ccccc2-c2c1c1cc3c(cc1c(=O)n2CCCCl)OCO3`, in experiment [1], the GI50 is 29.4 µM and the TGI is > 100 µM. In experiment [2], the GI50 is 24.7 µM and the TGI came to 75.3 µM.

For `COc1nc2c(cc1S(=O)(=O)c1ccccc1)CCc1c-2cnn1-c1ccccc1Cl`, in experiment [1], the GI50 was 8.94 µM and the TGI was > 100 µM. Further, in experiment [2], the GI50 is 5.16 µM and the TGI was > 100 µM.

(Values after PubChem BioAssay (NCI).)
